Like-named read-outs stand apart in the source and are kept apart here.
Tests used:
[1] = system: blood brain barrier (BBB); test: Duration of the effect on BBB opening in rat brain; assay type: in vivo, Sprague Dawley rats; details: EC50 concentrations of the tested compounds
From the text: The effects of DP-BFA on Evans Blue and Fluoroscein extravasation in rat brain were examined at various time points following DP-BFA administration. Various DP-BFA compounds were infused, over a period of 30 seconds, into the external carotid artery of Sprague Dawley rats, following the procedure described above in Example 17. The tested compounds were used at their EC50 concentrations. […] Two compounds, 3,12-PC and 3,12-MEG-PC, both comprising a phosphocholine moiety, have shown D1/2 which was 4 times longer than the other tested 3,12-BFA derivatives, i.e. D1/2 of around 120 min.

[2] = system: blood tumor barrier / blood brain barrier; test: Unilateral administration in rats with bilateral C6 gliomas, Evans blue staining of brain sections; assay type: in vivo, SD rats; details: 10 μM 3,12-DEG-HPO4Na; 40 μM 3,12-Na; 25% mannitol; unilateral infusion
Protocol: FIGS. 2A–C depict Evans blue accumulation in brain sections of rats bearing bilateral gliomas following unilateral administration of a compound as follows: 10 μM 3,12-DEG-HPO4Na (FIG. 2A), 40 μM 3,12-Na (FIG. 2B) or mannitol 25% (FIG. 2C).
Evans Blue and Fluoroscein penetration into gliomas tumors was examined following unilateral infusion into the external carotis artery of either 10 μM 3,12-DEG-HPO4Na (FIG. 2A), 40 μM 3,12-Na BFA (FIG. 2B) or 25% mannitol (FIG. 2C). The relevant compound was infused into rat brains at 9 to 12 days following inoculation of C6 glioma cells as described in Example 23.

C6 glioma cell line = test: MTT cytotoxicity, C6 glioma; assay type: cell-based, rat; details: three days, read-out: EC50 (50% reduction in cell viability)
Protocol: The cytotoxic activity of various phospho-derivatives of branched-chain fatty acids (DP-BFAs) was assayed in vitro in cell cultures that include normal and malignant cell types. The following cell systems were used: • Primary fibroblasts (human) • Normal bone marrow (BM) cells (mouse) • Primary bronchial epithelial cells (human, from Clonetics, cat. no. CC-2541) • Caco-2—colon cancer cell line (human, ATTC, HTB-37) • C6 glioma cell line (rat, ATCC, CRL-2199) • Neuro2a—neuroblastoma cell line (mouse, ATCC, CCL-131) • SKBR-3—breast cancer cell line (human, ATTC, HTB-30) • HL60—myeloid leukemia cell line (human, ATCC, CCL-240) • U937—myeloid leukemia cell line (human)
Cells were seeded in a microtiter plate in MEM containing 2 mM L-glutamine, 100 units/ml penicillin, 100 ug/ml streptomycin and 10% FCS at 37° C. The cultured cells were incubated, during their linear growth phase in the absence (control group) or presence of various DP-BFAs as indicated. The final concentrations of the tested DP-BFAs ranged from 1.5 to 200 microMolars. At the end of the incubation period, which was five days for the bone marrow cells and three days for all the other cell lines, the cytotoxic effect of the added P-BFA on the cells was estimated by using the colorimetric MTT assay. The MTT assay (Mosmann (1983) J. Immunol Methods 65: 55–63) measures mitochondrial reductase activity and serves for quantitative assessment of cellular viability. Drug concentration that causes 50% reduction in cell viability in comparison to the control group, is defined as EC50. The EC50 values of the tested DP-BFA compounds were calculated from dose response curves established for each of the different assayed cell lines.
Each EC50 value is an average of EC50 values derived from 1–5 independent experiments.

[3] = system: Chinese hamster ovary (CHO) AA8 cell line; test: LDH release toxicity assay in cultured CHO AA8 cells; assay type: cell-based; details: 1 hour incubation, read-out: LC50 (the source's name)
Protocol: Various DP-BFA molecules were screened in cultured Chinese hamster ovary (CHO) AA8 cell line in order to establish their toxicity. LC50 values, i.e. the concentrations causing death in 50% of cell population, were calculated from dose response curves. LC50 values of phospho-BFAs were compared to those of the corresponding branched fatty acids (=carbo-BFAs).
Lactate dehydrogenase (LDH) release was used as an assay for the integrity of the cells membrane and, thus, for estimation of toxicity. Cells (2×10^5/ml) were seeded (150 μl/well) in 96 well plates, in RPMI-1640 medium containing 10% FCS. After two days, tested DP-BFA compounds or the control compound myristic acid were added to the plates in declining concentrations ranging from 500 to 1 μg/ml. Cells were harvested after one hour. […] Other controls included, two blank wells and five wells containing cells with no additional drugs. Following centrifugation (1500 rpm, 5 min), 75 μl of the supernatant was transferred to a new plate with 45 μl of an LDH assay mix (Tox-7 kit, Sigma). After 10–20 minutes at room temperature, absorbance was measured using an Elisa Reader 490 nm.
Each experiment was performed in triplicate.

[4] = system: DNA fragmentation in Neuro2a neuroblastoma cells; test: DNA fragmentation in Neuro2a cells (Cell Death Detection Elisa); assay type: cell-based, mouse; details: for DNA fragmentation (OD405 nm): 24 hours, Neuro2a (control 0.030)
Protocol: (§1) In order to further explore the possible mechanism underlying the cytotoxic effect exerted by the various DP-BFAs, two established markers for apoptosis, caspase-3 activity and DNA fragmentation (Lincz (1998) Immunol. Cell Biol. 76: 1–19), were studied.
(§2) Neuro2a neuroblastoma cells (ATCC, CCL-131) were seeded in MEM containing 2 mM L-glutamine, 100 units/ml penicillin, 100 ug/ml streptomycin and 10% FCS at 37° C. 24 hours later, when cells were in logarithmic growth phase, 3,12-DEG-PC was added to a final concentration of 25 μM, 50 μM or 100 μM. Cells grown in the presence of vehicle only served as control group.
(§3) Assays for caspase-3 activity and DNA-fragmentation were performed on cell lysates obtained following, respectively, 6 and 24 hours incubation with the drug. Caspase-3 activity was assayed using the fluorogenic substrate Ac-DEVD-AMC (Pharmingen, Becton Dickinson, cat. no. 66081U) and following the manufacture's instructions. DNA-fragmentation was quantified by using the Cell Death Detection Elisa plus kit (Roche, cat. no. 1774 425) and following the manufacture's instructions.
(§4) The measured caspase activity is expressed as percentage of the activity in the control plates normalized to protein content. DNA-fragmentation is expressed as OD values at λ=405 nm and is an average of readings from duplicate cell culture lysates.

[5] = system: caspase-3 activity in Neuro2a neuroblastoma cells; test: Caspase-3 activity in Neuro2a cell lysates (Ac-DEVD-AMC substrate); assay type: cell-based, mouse
Protocol: as §1, §2, §3, §4

Compound: CCCCCCCCCCCCC(CCC)C(=O)OCCOP(=O)([O-])OCC[N+](C)(C)C (stereo not drawn) [3,12-MEG-PC, 2-(2′-Propyltetradecanoyloxy)ethylphosphocholine]
- D1/2 (duration of at least 50% opening of the BBB) [1]: around 120 min

Compound: 2-(4′-Hexadecanoyloxy)ethoxyethyl phosphate [3,12-DEG-PO4]
- Evans Blue staining of tumor and non-tumor brain (FIG. 2, in words) [2]: only in the tumor tissue in the ipsilateral hemisphere

Compound: CCCCCCCCCCCCC(CCC)C(=O)OCCOCCOP(=O)([O-])[O-].[Na+].[Na+] (stereo not drawn) [3,12-DEG-PO4Na2, 2-[2′-(2″-Propyltetradecanoyloxy)-ethoxy]ethyl Disodium Phosphate]
- EC50 (C6 glioma cell line): 38 µM
- CC50 [3]: 320 µM

Compound: CCCCCCCCCCCCC(CCC)OP(=O)([O-])OCC[N+](C)(C)C (stereo not drawn) [3,12-PC, 4-Hexadecanyl phosphocholine]
- D1/2 (duration of at least 50% opening of the BBB) [1]: around 120 min

Compound: CCCCCCCCCCCCC(CCC)C(=O)OCCOCCOP(=O)([O-])OCC[N+](C)(C)C (stereo not drawn) [3,12-DEG-PC, 2-(2′-Propyltetradecanoyloxy)ethoxyethylphosphocholine]
- EC50 (C6 glioma cell line; Rattus norvegicus, 72 h): 95 µM
- DNA fragmentation (OD405 nm) ([4]; 25 μM): 0.036 OD405 nm
- DNA fragmentation (OD405 nm) ([4]; 50 μM): 0.153 OD405 nm
- DNA fragmentation (OD405 nm) ([4]; 100 μM): 0.389 OD405 nm
- DNA fragmentation (in words) ([4]; Neuro2a cells): significant increase in DNA fragmentation
- activity at 25 µM ([5]; Mus musculus, N2a, 25 μM, 6 hours, Neuro2a, normalized to protein content, read-out: Caspase activity (% of control)): 210%
- activity at 50 µM ([5]; Mus musculus, N2a, 50 μM, 6 hours, Neuro2a, normalized to protein content, read-out: Caspase activity (% of control)): 540%
- increase in caspase-3 activity ([5]; Neuro2a cells): about 5 fold

Compound: CCCCCCCCCCCCC(CCC)C(=O)[O-].[Na+] (stereo not drawn) [3,12-Na, reference compound]
- CC50 [3]: 165 µM
- Evans Blue staining of tumor and non-tumor brain (FIG. 2, in words) [2]: equally permeabilized tumor and non-tumor brain tissues

— patent US7186703B2, “Derivatives of branched-chain lipophilic molecules and uses thereof” (D-Pharm Ltd., priority 2000, dated 2007)
